{"source": "patent US20030166018A1", "about": "“Methods for identifying agents that modulate mast cell degranulation” (priority 2002, published 2003)", "system": "mast cells", "test": "Radioprotection of mast cells from γ-irradiation-induced apoptosis (anti-annexin V and propidium iodide staining)", "type": "cell-based", "details": "cultured mast cells from wild type and SWAP-70 ko/ko mice (similar degree in both); 100 ng/ml SCF, with or without IL-3; irradiated 0-160 Gy; FIG. 3B", "from_the_text": "Analysis of peritoneal fluid by Percol gradient centrifugation used step-gradients (increments 0.005) with densities of Percol in PBS, 2% FCS from 1.07 to 1.09. Cells accumulating in the pellet and those banding at 1.09 and 1.085 densities stained intensively with toluidine blue and with berberine sulfate and are regarded as mature mast cells. Assays for apoptosis used staining of cells with propidium iodide or anti annexin V antibodies as described (Ref. 15). Immunofluorescence and Western blotting were performed as described (Ref. 24).\nMast cells from wild type and SWAP-70^ko/ko mice were cultured in the presence or absence of 100 ng/ml SCF, with or without IL-3, and irradiated with various doses (0-160 Gy). Subsequently, apoptosis was measured by staining with anti-annexin V and propidium iodine. […] This elevated sensitivity was confirmed in a series of irradiation experiments in which mast cells were compared to other primary cell types, including thymocytes, preB cells, and fibroblasts. All of these non-mast cell were of identical sensitivity for γ-irradiation regardless of their SWAP-70 genotype. No increased sensitivity of SWAP-70 deficient mast cells for UV irradiation was observed.", "data": [{"substance": "stem cell factor [SCF]", "values": [{"measurement": "protection from γ-irradiation-induced apoptosis", "value": 3, "unit": "fold"}]}]}
